Patent US9422274B2, “Oxazolidinone derivatives and composition for preventing or treating hepatitis C containing the same” (KOREA INSTITUTE OF SCIENCE AND TECHNOLOGY, priority 2013, dated 2016)

Legend:
Hepatitis C virus [1] = assay: Anti-viral activity test (HCVcc, Type 2a), JFH 5a-Rluc luciferase in Huh7.5.1 cell line; type: cell-based; conditions: for inhibition: Huh-7.5.1, luciferase activity, negative control = 100%, Huh7.5.1 cells infected with JFH 5a-Rluc, read-out: HCV inhibition rate %; for EC50: Huh-7.5.1, read-out: EC50 (concentration of compound to inhibit the 50% of viral growth)
Experimental: The inhibitory effect of the oxazolidinone compounds on HCV replicon and NS5A were HCV was tested by the method disclosed in KR-A 10-2010-0007937 or US-A 2010/0215696.
The cell lines containing replicon were prepared by preparing JFH 5a-Rluc (plasmid expressing Renilla luciferase reporter protein) RNA according to the method disclosed in the documents, introducing the JFH 5a-Rluc RNA into host cell lines (Huh7.5.1 cell line) by electroporation and infecting the host cell lines (Zhnog et al., Proc. Natl. Acad. Sci. USA, 102, 9294-9299). After the infected cell lines were cultured with or without the treatment of the oxazolidinone compound, the luciferase activity was detected to obtain the inhibitory effect of […] replicon replication. EC50) of the compound was determined by performing the test at various concentrations of the compound.
The compounds Example 1 to 17 were tested for anti-viral activity on Hepatitis C virus, according to the method of KR10-2010-0007937 (published on Jan. 22, 2010) or US2010/0215696 (published on Aug. 26, 2010).
The cell lines containing replicon were prepared by preparing JFH 5a-Rluc (plasmid expressing Renilla luciferase reporter protein) RNA according to the method disclosed in the documents, introducing the JFH 5a-Rluc RNA into host cell lines (Huh7.5.1 cell line) by electroporation and infecting the host cell lines (Zhnog et al., Proc. Natl. Acad. Sci. USA, 102, 9294-9299). After the infected cell lines were cultured with or without the treatment of 1 mM of the oxazolidinone compounds of Examples 1 to 17, the host cell lines were obtained on 1, 2 and 3 days after treatment, and the luciferase activity produced from the host cells was measured.
The luciferase activity of negative control which was not treated with the oxazolidinone compound is set to 100%. At various amounts of the oxazolidinone compounds, the luciferase activities were calculated based on the negative control to obtain the inhibition rate of HCV (%). The positive control was Interferon (INF)(Sigma, SRP4595).

Hepatitis C virus [2] = assay: as above; type: cell-based, Hepatitis C virus (HCVcc; conditions: for inhibition at 0.001 µM: Hepatitis C virus, Huh-7.5.1, read-out: inhibition rate; for remnant HCV amount: treated at a concentration of 1 nM

| Structure (SMILES) | inhibition (Hepatitis C virus [1]) [%] | EC50 (Hepatitis C virus [1]) [nM] | inhibition at 0.001 µM (Hepatitis C virus [2]) [%] | remnant HCV amount (Hepatitis C virus [2]) [%] |
| --- | --- | --- | --- | --- |
| COC(=O)N[C@H](C(=O)N1CCC[C@H]1c1ncc(-c2ccc(-c3ccc(N4C[C@H](Cn5cc(COCc6ccccc6)nn5)OC4=O)cc3F)cc2)[nH]1)C(C)C [Example 9, Methyl ((S)-1-((S)-2-(5-(4′-((R)-5-((4-((benzyloxy)methyl)-1H-1,2,3-triazol-1-yl)methyl)-2-oxooxazolidin-3-yl)-2′-fluoro-[1,1′-biphenyl]-4-yl)-1H-imidazol-2-yl)pyrrolidin-1-yl)-3-methyl-1-oxobutan-2-yl)carbamate] | 97.3 | 17.4 | 97 | 3.0 |
| COC(=O)N[C@H](C(=O)N1CCC[C@H]1c1ncc(-c2ccc(-c3ccc(N4C[C@H](Cn5cc(-c6ccccc6)nn5)OC4=O)cc3F)cc2)[nH]1)C(C)C [Example 11, Methyl ((S)-1-((S)-2-(5-(2′-fluoro-4′-((R)-2-oxo-5-((4-phenyl-1H-1,2,3-triazol-1-yl)methyl)oxazolidin-3-yl)-[1,1′-biphenyl]-4-yl)-1H-imidazol-2-yl)pyrrolidin-1-yl)-3-methyl-1-oxobutan-2-yl)carbamate] | 96.7 |  | 95.2 | 6.8 |
| COC(=O)N[C@H](C(=O)NC[C@H]1CN(c2ccc(-c3ccc(-c4cnc([C@@H]5CCCN5C(=O)[C@@H](NC(=O)OC)C(C)C)[nH]4)cc3)c(F)c2)C(=O)O1)C(C)C [Example 15, Methyl ((S)-1-((((S)-3-(2-fluoro-4′-(2-((S)-1-((methoxycarbonyl)-L-valyl)pyrrolidin-2-yl)-1H-imidazol-5-yl)-[1,1′-biphenyl]-4-yl)-2-oxooxazolidin-5-yl)methyl)amino)-3-methyl-1-oxobutan-2-yl)carbamate] | 99.8 | 1 | 44.3 | 55.7 |
| CC(=O)N1CCC[C@H]1c1ncc(-c2ccc(-c3ccc(N4C[C@H](Cn5ccnn5)OC4=O)cc3F)cc2)[nH]1 [Example 2, (R)-5-((1H-1,2,3-Triazol-1-yl)methyl)-3-(4′-(2-((S)-1-acetylpyrrolidin-2-yl)-1H-imidazol-5-yl)-2-fluoro-[1,1′-biphenyl]-4-yl)oxazolidin-2-one] | 32 |  |  |  |
| COC(=O)N[C@H](C(=O)NC[C@H]1CN(c2ccc(-c3ccc(-c4cnc([C@@H]5CCCN5C(=O)OC(C)(C)C)[nH]4)cc3)c(F)c2)C(=O)O1)C(C)C [Example 16, tert-Butyl (S)-2-(5-(2′-fluoro-4′-((S)-5-(((S)-2-((methoxycarbonyl)amino)-3-methylbutanamido)methyl)-2-oxooxazolidin-3-yl)-[1,1-biphenyl]-4-yl)-1H-imidazol-2-yl)pyrrolidine-1-carboxylate] | 58 |  |  |  |
| COC(=O)N[C@H](C(=O)N1CCC[C@H]1c1ncc(-c2ccc(-c3ccc(N4C[C@H](Cn5cc(COC(C)=O)nn5)OC4=O)cc3F)cc2)[nH]1)C(C)C [Example 8, 1-(((R)-3-(2-Fluoro-4′-(2-((S)-1-((methoxycarbonyl)-L-valyl)pyrrolidin-2-yl)-1H-imidazol-5-yl)-[1,1′-biphenyl]-4-yl)-2-oxooxazolidin-5-yl)methyl)-1H-1,2,3-triazol-4-yl)methyl acetate] | 79.8 |  |  |  |
| COC(=O)N[C@H](C(=O)N1CCC[C@H]1c1ncc(-c2ccc(-c3ccc(N4C[C@H](Cn5cc(CCO)nn5)OC4=O)cc3F)cc2)[nH]1)C(C)C [Example 6, Methyl ((S)-1-((S)-2-(5-(2′-fluoro-4′-((R)-5-((4-(2-hydroxyethyl)-1H-1,2,3-triazol-1-yl)methyl)-2-oxooxazolidin-3-yl)-[1,1′-biphenyl]-4-yl)-1H-imidazol-2-yl)pyrrolidin-1-yl)-3-methyl-1-oxobutan-2-yl)carbamate] | 84.4 |  |  |  |
| COC(=O)N[C@H](C(=O)N1CCC[C@H]1c1ncc(-c2ccc(-c3ccc(N4C[C@H](Cn5cc(CNC(C)=O)nn5)OC4=O)cc3F)cc2)[nH]1)C(C)C [Example 10, Methyl ((S)-1-((S)-2-(5-(4′-((R)-5-((4-(acetamidomethyl)-1H-1,2,3-triazol-1-yl)methyl)-2-oxooxazolidin-3-yl)-2′-fluoro-[1,1′-biphenyl]-4-yl)-1H-imidazol-2-yl)pyrrolidin-1-yl)-3-methyl-1-oxobutan-2-yl)carbamate] | 32.8 |  |  |  |
| COC(=O)N[C@H](C(=O)N1CCC[C@H]1c1ncc(-c2ccc(-c3ccc(N4C[C@H](Cn5ccnn5)OC4=O)cc3F)cc2)[nH]1)C(C)C [Example 3, Methyl ((S)-1-((S)-2-(5-(4′-((R)-5-((1H-1,2,3-triazol-1-yl)methyl)-2-oxooxazolidin-3-yl)-2′-fluoro-[1,1′-biphenyl]-4-yl)-1H-imidazol-2-yl)pyrrolidin-1-yl)-3-methyl-1-oxobutan-2-yl)carbamate] | 99.8 | 0.98 | 78.9 | 21.1 |
| COC(=O)N[C@H](C(=O)N1CCC[C@H]1c1ncc(-c2ccc(-c3ccc(N4C[C@H](Cn5cc(CO)nn5)OC4=O)cc3F)cc2)[nH]1)C(C)C [Example 5, Methyl ((S)-1-((S)-2-(5-(2′-fluoro-4′-((R)-5-((4-(hydroxymethyl)-1H-1,2,3-triazol-1-yl)methyl)-2-oxooxazolidin-3-yl)-[1,1′-biphenyl]-4-yl)-1H-imidazol-2-yl)pyrrolidin-1-yl)-3-methyl-1-oxobutan-2-yl)carbamate] | 95.8 |  |  |  |
| COC(=O)N[C@H](C(=O)NC[C@H]1CN(c2ccc(-c3ccc(-c4cnc([C@@H]5CCCN5C(C)=O)[nH]4)cc3)c(F)c2)C(=O)O1)C(C)C [Example 17, Methyl ((S)-1-((((S)-3-(4′-(2-((S)-1-acetylpyrrolidin-2-yl)-1H-imidazol-5-yl)-2-fluoro-[1,1′-biphenyl]-4-yl)-2-oxooxazolidin-5-yl)methyl)amino)-3-methyl-1-oxobutan-2-yl)carbamate] | 38.1 |  |  |  |
| CC(C)(C)OC(=O)N1CCC[C@H]1c1ncc(-c2ccc(-c3ccc(N4C[C@H](Cn5ccnn5)OC4=O)cc3F)cc2)[nH]1 [Example 1, tert-Butyl(S)-2-(5-(4′-((R)-5-((1H-1,2,3-triazol-1-yl)methyl)-2-oxooxazolidin-3-yl)-2′-fluoro-[1,1′-biphenyl]-4-yl)-1H-imidazol-2-yl)pyrrolidine-1-carboxylate] | 31.7 |  |  |  |
| COC(=O)N[C@H](C(=O)N1CCC[C@H]1c1ncc(-c2ccc(-c3ccc(N4C[C@H](Cn5ccnn5)OC4=O)cc3F)cc2)[nH]1)c1ccccc1 [Example 4, methyl ((S)-2-((S)-2-(5-(4′-((R)-5-((1H-1,2,3-triazol-1-yl)methyl)-2-oxooxazolidin-3-yl)-2′-fluoro-[1,1′-biphenyl]-4-yl)-1H-imidazol-2-yl)pyrrolidin-1-yl)-2-oxo-1-phenylethyl)carbamate] | 95.2 |  |  |  |
| CC(=O)NC[C@H]1CN(c2ccc(-c3ccc(-c4cnc([C@@H]5CCCN5C(C)=O)[nH]4)cc3)c(F)c2)C(=O)O1 [Example 14, N—(((S)-3-(4′-(2-((S)-1-acetylpyrrolidin-2-yl)-H-imidazol-5-yl)-2-fluoro-[1,1′-biphenyl]-4-yl)-2-oxooxazolidin-5-yl)methyl)acetamide] | 28 |  |  |  |
| CC(=O)NC[C@H]1CN(c2ccc(-c3ccc(-c4cnc([C@@H]5CCCN5C(=O)OC(C)(C)C)[nH]4)cc3)c(F)c2)C(=O)O1 [Example 13, tert-Butyl (S)-2-(5-(4′-((S)-5-(acetamidomethyl)-2-oxooxazolidin-3-yl)-2′-fluoro-[1,1′-biphenyl]-4-yl)-1H-imidazol-2-yl)pyrrolidine-1-carboxylate] | 46.2 |  |  |  |
| COCc1cn(C[C@H]2CN(c3ccc(-c4ccc(-c5cnc([C@@H]6CCCN6C(=O)[C@@H](NC(=O)OC)C(C)C)[nH]5)cc4)c(F)c3)C(=O)O2)nn1 [Example 7, Methyl ((S)-1-((S)-2-(5-(2′-fluoro-4′-((R)-5-((4-(methoxymethyl)-1H-1,2,3-triazol-1-yl)methyl)-2-oxooxazolidin-3-yl)-[1,1′-biphenyl]-4-yl)-1H-imidazol-2-yl)pyrrolidin-1-yl)-3-methyl-1-oxobutan-2-yl)carbamate] | 83.3 |  |  |  |
| COC(=O)N[C@H](C(=O)N1CCC[C@H]1c1ncc(-c2ccc(-c3ccc(N4C[C@H](CNC(C)=O)OC4=O)cc3F)cc2)[nH]1)C(C)C [Example 12, Methyl ((S)-1-((S)-2-(5-(4′-((S)-5-(acetamidomethyl)-2-oxooxazolidin-3-yl)-2′-fluoro-[1,1′-biphenyl]-4-yl)-1H-imidazol-2-yl)pyrrolidin-1-yl)-3-methyl-1-oxobutan-2-yl)carbamate] | 99.8 |  | 27 | 73 |
